Measured values published in the NIST ThermoML archive (doi:10.1021/je101178u).
Values joined by “and” are separate entries in the source; they are usually repeats but may differ in a detail not shown here. Identical values can stand only once. Numbers after ± are expanded uncertainties.

Conditions: Fluid (supercritical or subcritical phases); for viscosity: vibrating wire; for mass density: Buoyancy - hydrostatic balance with magnetic suspension - one sinker

CC [ethane]
Conditions | mass density | viscosity
307.15 K, 29063 kPa | – | 0.07227 ± 0.00044 mPa·s
307.15 K, 29978 kPa | 436.186 ± 1.3 kg/m3 and 436.185 ± 1.3 kg/m3 | 0.07317 ± 0.00045 mPa·s and 0.07325 ± 0.00045 mPa·s
307.15 K, 29979 kPa | 436.187 ± 1.3 kg/m3 | 0.07323 ± 0.00045 mPa·s
307.15 K, 29980 kPa | 436.189 ± 1.3 kg/m3 | 0.07314 ± 0.00045 mPa·s and 0.07319 ± 0.00045 mPa·s
423.15 K, 95.75 kPa | 0.82018 ± 0.0028 kg/m3 | 0.01277 ± 7.7e-05 mPa·s
423.15 K, 95.83 kPa | 0.82091 ± 0.0028 kg/m3 | 0.01276 ± 7.7e-05 mPa·s
423.15 K, 117.47 kPa | 1.0068 ± 0.0031 kg/m3 | 0.01277 ± 7.7e-05 mPa·s
423.15 K, 117.64 kPa | 1.0082 ± 0.0031 kg/m3 | 0.01277 ± 7.7e-05 mPa·s
423.15 K, 117.73 kPa | 1.009 ± 0.0031 kg/m3 | 0.01277 ± 7.7e-05 mPa·s
423.15 K, 226.59 kPa | 1.947 ± 0.0047 kg/m3 | 0.0128 ± 7.7e-05 mPa·s
423.15 K, 226.76 kPa | 1.9485 ± 0.0047 kg/m3 | 0.0128 ± 7.7e-05 mPa·s
423.15 K, 459.37 kPa | 3.9693 ± 0.0086 kg/m3 | 0.01284 ± 7.7e-05 mPa·s
423.15 K, 459.46 kPa | 3.9701 ± 0.0086 kg/m3 | 0.01284 ± 7.7e-05 mPa·s
423.15 K, 691.62 kPa | 6.0097 ± 0.013 kg/m3 | 0.0129 ± 7.8e-05 mPa·s
423.15 K, 691.95 kPa | 6.0126 ± 0.013 kg/m3 | 0.01289 ± 7.8e-05 mPa·s
423.15 K, 915.95 kPa | 8.0024 ± 0.017 kg/m3 | 0.01294 ± 7.8e-05 mPa·s
423.15 K, 916.03 kPa | 8.0031 ± 0.017 kg/m3 | 0.01294 ± 7.8e-05 mPa·s
423.15 K, 1136.5 kPa | 9.9828 ± 0.021 kg/m3 | 0.01298 ± 7.8e-05 mPa·s
423.15 K, 1136.7 kPa | 9.9843 ± 0.021 kg/m3 | 0.01298 ± 7.8e-05 mPa·s
423.15 K, 1357.6 kPa | 11.99 ± 0.025 kg/m3 | 0.01303 ± 7.8e-05 mPa·s
423.15 K, 1357.9 kPa | 11.993 ± 0.025 kg/m3 | 0.01303 ± 7.8e-05 mPa·s
423.15 K, 1576.5 kPa | 13.999 ± 0.03 kg/m3 | 0.01306 ± 7.9e-05 mPa·s and 0.01307 ± 7.9e-05 mPa·s
423.15 K, 1794.4 kPa | 16.02 ± 0.034 kg/m3 | 0.01312 ± 7.9e-05 mPa·s
423.15 K, 1795 kPa | 16.025 ± 0.034 kg/m3 | 0.01311 ± 7.9e-05 mPa·s
423.15 K, 2007.1 kPa | 18.014 ± 0.038 kg/m3 | 0.01317 ± 7.9e-05 mPa·s
423.15 K, 2007.2 kPa | 18.015 ± 0.038 kg/m3 | 0.01317 ± 7.9e-05 mPa·s
423.15 K, 2209.1 kPa | 19.928 ± 0.042 kg/m3 | 0.01322 ± 8e-05 mPa·s
423.15 K, 2209.2 kPa | 19.929 ± 0.042 kg/m3 | 0.01322 ± 7.9e-05 mPa·s
423.15 K, 3243 kPa | 30.033 ± 0.064 kg/m3 | 0.01352 ± 8.1e-05 mPa·s
423.15 K, 3244.5 kPa | 30.048 ± 0.064 kg/m3 | 0.01351 ± 8.1e-05 mPa·s
423.15 K, 4164.4 kPa | 39.494 ± 0.086 kg/m3 | 0.01382 ± 8.3e-05 mPa·s
423.15 K, 4164.5 kPa | 39.495 ± 0.086 kg/m3 | 0.01382 ± 8.3e-05 mPa·s
423.15 K, 4551.5 kPa | 43.602 ± 0.1 kg/m3 | 0.01395 ± 8.4e-05 mPa·s
423.15 K, 4555.3 kPa | 43.642 ± 0.1 kg/m3 | 0.01396 ± 8.4e-05 mPa·s
423.15 K, 5910.6 kPa | 58.665 ± 0.13 kg/m3 | 0.01454 ± 8.7e-05 mPa·s
423.15 K, 5914.3 kPa | 58.707 ± 0.13 kg/m3 | 0.01455 ± 8.7e-05 mPa·s
423.15 K, 6746.2 kPa | 68.424 ± 0.15 kg/m3 | 0.01497 ± 9e-05 mPa·s
423.15 K, 6746.9 kPa | 68.432 ± 0.15 kg/m3 | 0.01497 ± 9e-05 mPa·s
423.15 K, 7528 kPa | 77.889 ± 0.18 kg/m3 | 0.01542 ± 9.3e-05 mPa·s
423.15 K, 7530.1 kPa | 77.915 ± 0.18 kg/m3 | 0.01542 ± 9.3e-05 mPa·s
423.15 K, 8298.5 kPa | 87.517 ± 0.2 kg/m3 | 0.0159 ± 9.6e-05 mPa·s
423.15 K, 8300.8 kPa | 87.546 ± 0.2 kg/m3 | 0.0159 ± 9.6e-05 mPa·s
423.15 K, 9235.9 kPa | 99.586 ± 0.24 kg/m3 | 0.01656 ± 0.0001 mPa·s
423.15 K, 9238.5 kPa | 99.621 ± 0.24 kg/m3 | 0.01656 ± 0.0001 mPa·s
423.15 K, 10732 kPa | 119.465 ± 0.29 kg/m3 | 0.01774 ± 0.00011 mPa·s
423.15 K, 10733 kPa | 119.476 ± 0.29 kg/m3 | 0.01775 ± 0.00011 mPa·s
423.15 K, 12215 kPa | 139.509 ± 0.34 kg/m3 | 0.0191 ± 0.00012 mPa·s
423.15 K, 12218 kPa | 139.549 ± 0.34 kg/m3 | 0.01909 ± 0.00012 mPa·s
423.15 K, 13727 kPa | 159.706 ± 0.4 kg/m3 | 0.02062 ± 0.00013 mPa·s
423.15 K, 13728 kPa | 159.722 ± 0.4 kg/m3 | 0.02062 ± 0.00013 mPa·s
423.15 K, 15325 kPa | 180.142 ± 0.45 kg/m3 | 0.02234 ± 0.00014 mPa·s
423.15 K, 15327 kPa | 180.168 ± 0.45 kg/m3 | 0.02234 ± 0.00014 mPa·s
423.15 K, 16990 kPa | 199.904 ± 0.49 kg/m3 | 0.0242 ± 0.00015 mPa·s
423.15 K, 16991 kPa | 199.911 ± 0.49 kg/m3 | 0.02421 ± 0.00015 mPa·s
423.15 K, 16992 kPa | 199.925 ± 0.49 kg/m3 | 0.0242 ± 0.00015 mPa·s
423.15 K, 18872 kPa | 220.003 ± 0.54 kg/m3 | 0.02632 ± 0.00016 mPa·s
423.15 K, 18874 kPa | 220.02 ± 0.54 kg/m3 | 0.02632 ± 0.00016 mPa·s
423.15 K, 18878 kPa | 220.065 ± 0.54 kg/m3 | 0.02633 ± 0.00016 mPa·s
423.15 K, 21034 kPa | 240.207 ± 0.58 kg/m3 and 240.204 ± 0.58 kg/m3 | 0.0287 ± 0.00017 mPa·s
423.15 K, 23414 kPa | 259.265 ± 0.61 kg/m3 | 0.03119 ± 0.00019 mPa·s
423.15 K, 23415 kPa | 259.275 ± 0.61 kg/m3 | 0.0312 ± 0.00019 mPa·s
423.15 K, 26527 kPa | 280.132 ± 0.66 kg/m3 | 0.03425 ± 0.00021 mPa·s
423.15 K, 26529 kPa | 280.144 ± 0.66 kg/m3 | 0.03424 ± 0.00021 mPa·s
423.15 K, 30162 kPa | 300.101 ± 0.72 kg/m3 | 0.03757 ± 0.00023 mPa·s
423.15 K, 30174 kPa | 300.162 ± 0.72 kg/m3 | 0.03757 ± 0.00023 mPa·s
423.15 K, 30181 kPa | 300.195 ± 0.72 kg/m3 | 0.03756 ± 0.00023 mPa·s
423.15 K, 30183 kPa | 300.204 ± 0.72 kg/m3 | 0.03758 ± 0.00023 mPa·s
